Assay results: patent US11224633B2, “Kit for treating sepsis and/or any systemic (SIRS) or damaging cellular hyperinflammation” (priority 2015, dated 2022)

How the values were obtained:
[1] = in vivo; cited from earlier work
[2] = system: male IOPS Han Ico Wistar rats, septic shock by LPS Salmonella typhimurium
[3] = venous blood at euthanasia H 6h30, individual rats, selenite alone = group 2 perfusion
[4] = venous blood gases at euthanasia H 6h30, individual rats, selenite alone = group 2 perfusion

SMILES	NOAEL No Adverse Effect Level determined in nutrition, per kg [1]	ScvO2 or SaO2 ([2]; blood at euthanasia H 6h30, individual rats, selenite alone = group 2 perfusion)	Creat ([2]; creatinine at H 6h30, individual rats, selenite alone = group 2 perfusion)	Gly ([2]; glycemia at H 6h30, individual rats, selenite alone = group 2 perfusion)	survival of animals ([2]; group 4: control B2 then Na2SeO3 alone in 3 flash injections every 10 min, LPS 50 mg/kg)	Lactate level ([2]; individual rats, LPS 50 mg/kg, sample at H 6h30, selenite alone = group 2, 0.3 mg/kg Se perfused over 30 min, Sel-P over 30 min, combination = Sel-P then 3 flash injections of selenite 0.1 mg/kg)	CO3H— [2, 3]	Venous lactate [2, 3]	PCO2 [2, 4]	PaO2 [2, 4]	pH [2, 4]
[Se] [selenium]	11 μg/kg per day										
O=[Se](O)O [sodium selenite]		8.9	156	0.27	do not survive	8.75 mmol/L	19.6	8.75 mmol/L	97 mmHg	16 mmHg	6.906
